Reference: patent US12611411B2, “Triple-agent therapy for cancer treatment” (CYTOMETRIC THERAPEUTICS, INC., priority 2021, dated 2026)

Key:
[1] = test system: live cancer cell cultures; assay: Cytometric testing of the patient's cancer cells; assay type: cell-based, human; conditions: for activity in cytometric testing: Example 14, incompletely resected pancreatic cancer; for sensitivity in cytometric testing: Example 18, ascites of metastatic carcinoma of the urachus
From the text: Also disclosed are methods for in vitro testing a drug combination on cancer cells of a subject for cancer cell survival, wherein the drug combination comprises tamoxifen, gefitinib, and vinorelbine. The in vitro testing can comprise administering tamoxifen and gefitinib prior to, together with, and/or after, administering vinorelbine. The in vitro testing can comprise measuring the cancer cell survival. Suitable in vitro tests and methods for measuring the cancer cell survival include Differential Staining Cytotoxicity Assay (DiSC), MTT assay, ATP assay, and fluorescein diacetate assay (FDA). MTT assay is a colorimetric assay for assessing cell metabolic activity. Cellular enzymes are capable of reducing the tetrazolium dye MTT 3-(4,5-dimethylthiazol-2-yl)-2,5-diphenyltetrazolium bromide to its insoluble formazan, which has a purple color. ATP assays are procedures that can measure cell viability based on detection of ATP. All living cells, including bacteria, can be detected with ATP assays. Several detection methods can be used, such as colorimetric, fluorescent and bioluminescent. FDA uses a cell-permeant esterase substrate fluorescein diacetate that can serve as a viability probe and that measures both enzymatic activity, which is required to activate its fluorescence, and cell-membrane integrity, which is required for intracellular retention of their fluorescent product.
Use of tamoxifen at a high dose of 80 milligrams per meter squared (the typical dose in conventional cancer treatment is 20 mg daily) and high dose of gefitinib (187 milligrams per meter squared twice daily for 3 days—the typical dose in conventional cancer treatment is 250 mg daily) has been found in cytometric testing using live cancer cell cultures to transport vinorelbine into the cancer cell, producing extraordinary synergy in causing programmed apoptosis in the cancer cells (programmed cancer cell death) while sparing much of the normal tissues and giving dramatic clinical outcomes.

[2] = test system: squamous cell carcinoma of the breast; assay: TGV therapy case study, triple-negative squamous cell carcinoma of the breast (Example 11); assay type: in vivo, human; conditions: person, before TGV
From the text: (§1) The 17 case studies represent patients with metastatic esophageal cancer, metastatic skin cancer, metastatic breast cancer, leptomeningeal breast cancer, metastatic prostate cancer, glioblastoma multiforme, lung cancer, bowel cancer, acute myelogenous leukemia, esthesioneuroblastoma, and urothelial cancer.

urothelial cancer = assay: TGV therapy case study, urothelial cancer (Example 17); assay type: in vivo, human; conditions: person, before TGV (MVAC together with radiation therapy)
Protocol: as §1
A person with regionally advanced bladder cancer was presented with urothelial cancer in the trigone of their bladder. The patient was treated with radiation therapy and with dose dense MVAC (M—methotrexate, V—vinblastine, A—doxorubicin, C—Cisplatin). […] The patient was then treated with gemcitabine and cisplatin to which they had no response. The patient then had the retroperitoneal lymph nodes radiated to a complete response. The patient was followed monthly and when recurrent disease was discovered in the lung and mediastinum, they were started on Padcev® (Enfortumab vedotin), to which they had no response. The patient was then offered TGV. […] The patient had neutropenia within five days and was admitted. […] It was concluded that the patient should not be given repeated chemotherapy until their bone marrow had recovered.

Row | Compound | activity in cytometric testing [1] | response to prior chemotherapy [2] | sensitivity in cytometric testing [1] | response to prior therapy (urothelial cancer)
1 | O=c1[nH]cc(F)c(=O)[nH]1 [5-fluorouracil] | no evidence of response |  |  | 
2 | COc1cccc2c1C(=O)c1c(O)c3c(c(O)c1C2=O)C[C@@](O)(C(=O)CO)C[C@@H]3O[C@H]1C[C@H](N)[C@H](O)[C@H](C)O1 [Adriamycin] |  | refractory |  | 
3 | O=P1(N(CCCl)CCCl)NCCCO1 (stereo not shown) [Cytoxan] |  | refractory |  | 
4 | CC(=O)O[C@@]12CO[C@@H]1C[C@H](O)[C@@]1(C)C(=O)[C@H](O)C3=C(C)[C@@H](OC(=O)[C@H](O)[C@@H](NC(=O)OC(C)(C)C)c4ccccc4)C[C@@](O)([C@@H](OC(=O)c4ccccc4)[C@H]21)C3(C)C [Taxotere] | no evidence of response | refractory |  | 
5 | Nc1ccn([C@@H]2O[C@H](CO)[C@@H](O)C2(F)F)c(=O)n1 [gemcitabine] | no evidence of response |  | hypersensitivity | 
6 | O=C1[O][Pt]2([NH][C@@H]3CCCC[C@H]3[NH]2)[O]C1=O [oxaliplatin] | no evidence of response |  | hypersensitivity | 
7 | Enfortumab vedotin [Padcev®] |  |  |  | no response
